Assay results from patent US20250025440A1, “COMPOSITIONS AND METHODS FOR MANAGEMENT OF HUMAN PAPILLOMA VIRUS-ASSOCIATED CANCERS” (LOMA LINDA UNIVERSITY, priority 2021, published 2025).

Experiments:
Type in all cases: cell-based
[1] = system: SCC90 and SCC104 (HPV+) cells; assay: Western blotting of p53 and apoptosis mediators; conditions: 0.5 μM and 1 μM, 24 hours
Description: (§1) Based on the cell viability studies described above, as well as AlphaScreen™ data showing that that GA-OH prevents E6 from binding to both caspase 8 and the p53-recruiter, E6AP, activation of p53 and associated apoptotic effects could be contributing to the decrease in cell viability. Levels of p53 and its target gene product, p21, were evaluated using immunoblotting. […] FIG. 8A is a photographic image of blots analyzing Caspase 8 expression and activation of downstream targets. SCC19, SCC90 and SCC104 were seeded and treated with vehicle, 0.5 μM and 1 μM Of GA-OH for 24 hours. Activation of p53 was tested by blotting for p53 expression and activation. Caspase 8 activation and apoptosis was tested by blotting for Caspase 8 expression and activation of downstream targets. These observations were corroborated by an induction of the levels of the target of p53, p21. […] The basal levels of p53 in the HPV^+ cell lines are lower compared to the HPV^− cell line.
(§2) The effect of GA-OH treatment on activation of another target of E6, caspase 8, and its downstream targets in the apoptosis cascade was evaluated. […] There is a noticeable increase in caspase 8 levels in the HPV^− cell line upon exposure to GA-OH. […] Quantification of relative expression of each of the targets above using B-actin as a loading control. FIGS. 9A-9E are graphical representations of the relative expression of cleaved PARP, p53, p21, cleaved caspase 3, and cleaved caspase 8, respectively in SCC19, SCC90 and SCC104 cell lines when treated with vehicle, or 0.5 μM, or 1 μM of GA-OH, each of the targets above using B-actin as a loading control is shown.
(§3) Adherent cells were washed with ice cold PBS. Cell lysis buffer containing protease inhibitor cocktail was added and cells were scraped off into a tube on ice. The cells were incubated on ice for 10 minutes. Cell lysates were separated by SDS-PAGE and electrophoretically transferred to PVDF membranes. Following blocking, antibodies directed against caspase 8, p53, cleaved PARP, cleaved caspase 3, p21, and β-actin (Cell signaling) were applied at 1:5000 dilution. Anti-mouse and anti-rabbit secondary antibodies were then employed (LI-COR Biosciences, Lincoln, NE, USA). Signals were measured using the Odyssey Infrared Imaging system (LI-COR Biosciences) and quantified using Image J.

SCC19 (HPV-) cells = assay: Western blotting of p53 and apoptosis mediators; conditions: HPV- cell line, 0.5 μM and 1 μM, 24 hours
Description: as §1, §2, §3

SCC104 (HPV+) = assay: Colony formation assay; conditions: SCC104, treated 24 hours
Description: (§4) For assessing the long-term effects on the survival of cells following GA-OH treatment, the colony formation assay (CFA) was performed. Two cell lines, SCC19 (HPV^−) and SCC104 (HPV^+) were used for this study. The cells were treated for 24 hours with GA-OH, and then seeded for assessment of colony formation. Cell survival data from this study mirrored the impact of GA-OH on cell viability of HPV^+ and HPV^− cell lines. […] FIG. 7C is a graphical representation of the effects of GA-OH on the clonogenicity of the surviving fractions of HPV^+ versus HPV^− cell lines.
(§5) Sub-confluent monolayer cells were treated with different doses of GA-OH for 24 hours. Cells were trypsinized and re-suspended before re-plating into 6 well plates in DMEM or MEM at 500-1000 cell densities, depending on the cell line. Cells were then allowed to grow for 10-20 days, depending on the cell line, before fixing and staining. A mixture of methanol/acetic acid was used for fixing, followed by 0.5% crystal violet staining. Plates were imaged using UV imager, and colonies with more than […] counted using image J. Surviving fractions were determined by dividing the number of colonies by the number of cells seeded as a product of the corresponding plating efficiency. Survival fractions curves were plotted using GraphPad Prism.

SCC19 (HPV-) = assay: Colony formation assay; conditions: SCC19, treated 24 hours
Description: as §4, §5

[2] = system: HPV+ (SCC47, SCC090, SCC104, SCC152) and HPV- (SCC19, SCC29, SCC49, SCC84) HNSCC cell lines; assay: MTT cell viability, HNSCC panel
Description: While SAR studies using the SCC104 cell line provided evidence of the activity of the analogs, further studies were conducted to assess not just the potency, but also the selectivity. As a step towards that goal, the efficacy of GA-OH was evaluated in a panel containing both HPV^+ and HPV^− HNSCC cell lines using MTT cell viability assays. Four HPV^+ cell lines (SCC47, SCC090, SCC104, SCC152) and four HPV^− cell lines (SCC19, SCC29, SCC49, SCC84) were utilized. GA-OH behaved dose dependently in cell lines both with or without HPV. […] FIGS. 7A-7C are graphical representations of the sensitivity of HPV^+ cell lines and HPV^− cell lines to GA-OH-mediated growth inhibition. FIG. 7A is a graphical representation of the cell growth inhibition of HNSCC HPV^+ and HPV^− cell lines by GA-OH (+ and closed shapes represent HPV^+ cell lines and − and open shapes the HPV^− cell lines). […] These cells were good controls, as HPV is an established causative agent in CC carcinogenesis. Two HPV^+ cell lines, SiHa and CaSki were selected as the positive controls and the Saos-2 cell line was used as an HPV-negative control. […] FIG. 7B is a graphical representation of the cell growth inhibition of cervical cancer HPV^+ and HPV^− cell lines by GA-OH. HPV^+ cell lines display higher sensitivity than do HPV^− cell lines as shown by the leftwards shift of the HPV^+ curves (SCC47, 90, 104, 152 in FIG. 7A and SiHa and CaSki in FIG. 7B).
All working concentrations were diluted in PBS to the desired concentration before use. To test the effect of gambogic acid and/or its derivatives on cell viability, all cell lines were seeded at 2×10^4 per well in 96-well plates and allowed to adhere overnight. Various concentrations of the analogues were added and the cells incubated at 37° C. for 24 hr. Viability was then measured using the MTT assay, performed as described previously. […] Cell viability and potency were assessed from % inhibition relative to the vehicle control, and IC50 dose curves were generated using GraphPad Prism.

30-hydroxygambogic acid [GA-OH] was tested, and the PARP cleavage [1] was “cleavage is modest”, the “caspase 3 cleavage” value [1] was “cleaved dose-dependently” and the “caspase 8 cleavage” value [1] was “cleavage of caspase 8 in a dose-dependent manner”. For the same substance, the p53 level [1] was “increase of p53”, the p21 level ([1]; vs vehicle) was “robust induction of p21 levels” and the “caspase 8 cleavage” value (SCC19 (HPV-) cells) was “no visible cleavage of caspase 8”. For the same substance, the number of colonies (SCC104 (HPV+)) was “significantly and dose-dependently reduced”, the number of colonies (SCC19 (HPV-)) was “did not exhibit significant reduction relative to their control except at high concentrations” and the “potency and selectivity for HPV+ versus HPV- cells” value [2] was “more potent and selective”. For the same substance, the “cell growth inhibition, sensitivity of HPV+ versus HPV- cell lines” value ([2]; MTT) was “displayed higher sensitivity”.
